{"source": "patent US20230072421A1", "about": "“TARGETED RADIOPHARMACEUTICALS FOR THE DIAGNOSIS AND TREATMENT OF PROSTATE CANCER” (Bayer AS, priority 2019, published 2023)", "key": {"C4-2 cells": {"tested_on": "C4-2 cells", "test": "Cell proliferation assay (CellTiter-Glo, 5-day exposure), C4-2", "format": "cell-based", "details": "C4-2, 1000 cells/well, Th-227 labelled at 375 kBq/nmol, mean of 1 to 6 experiments", "method_in_brief": "(§1)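 Thorium-227-labeled PSMA small-molecule ligands were applied for 5 days to prostate cancer lines plated overnight at 1000 cells/well (22Rv1, C4-2, LNCaP) or 4000 cells/well (VCaP). CellTiter-Glo luminescence gave viability at day 0 in sister plates and again after exposure.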"}, "LNCaP cells": {"tested_on": "LNCaP cells", "test": "Cell proliferation assay (CellTiter-Glo, 5-day exposure), LNCaP", "format": "cell-based, human", "details": "LNCaP, 1000 cells/well; Th-227 labelled at 375 kBq/nmol; 5-day exposure; mean of 1 to 6 experiments", "method": "Inhibition of cell proliferation of Thorium-227 labeled PMSA SMOL ligands was tested different prostate cancer cell lines, namely 22Rv1, VCaP, C4-2 (all from ATCC, Manassas, Va., USA) and LNCaP (DMSZ, Braunschweig). Cells were seeded using the following conditions in 384 well plates (Corning) in 30 μl of growth media at 4000 cells/well for VCaP cells and 1000 cells/well for 22Rv1, C4-2 and LNCaP cells.\nCells were cultivated an incubator at 37° C. and 5% C02 over night. On the following days cells were treated in triplicates with serial dilutions of PSMA-SMOLs labeled with Th-227 at a specific activity of 375 kBq/nmol (RCP>70% as assessed by iTLC analysis; compounds where RCP was between 50-70% in individual experiments are marked with an * in the table) using a D300e Digital Dispenser (Tecan). In sister plates cell viability at treatment start (d=0) was determined using CellTiter-Glo® assay (CTG, Promega, Madison, Wis., USA), by adding 30 μl per well CTG solution, incubation for 10 min and reading of Luminescence in a PheraStarFSX instrument (BMG Labtech). After a 5-day exposure in the presenced of test compounds, cell viability of treated or untreated control cells was determined again using CellTiter-Glo® assay (Promega, Madison, Wis., USA). […] The DRC software is a Biobook Spreadsheet that was developed by Bayer AG and Bayer Business Services on the IDBS E-Workbook Suite platform (IDBS: ID Business Solutions Ltd., Guildford, UK)."}, "VCaP cells": {"tested_on": "VCaP cells", "test": "Cell proliferation assay (CellTiter-Glo, 5-day exposure), VCaP", "format": "cell-based", "details": "4000 cells/well, Th-227 labelled at 375 kBq/nmol, mean of 1 to 6 experiments", "method_in_brief": "as §1"}}, "data": [{"compound": "O=C(O)CC[C@H](NC(=O)N[C@@H](CCCCNC(=O)[C@@H](Cc1ccc2ccncc2c1)NC(=O)[C@H]1CC[C@H](CNC(=O)C[N+]23CCN4CCN5CC[N+]6(CC2)CC(=O)[O][227Th-2]36([O]C(=O)C4)[O]C(=O)C5)CC1)C(=O)O)C(=O)O", "note": "[Example 42-B-227Th, (3R,10S,14S)-3-[(isoquinolin-7-yl)methyl]-1,4,12-trioxo-1-{(1r,4S)-4-[(2-{4,7,10-tris[(carboxy-kappaO)methyl]-1,4,7,10-tetraazacyclododecan-1-yl-kappa^2N^1,N^4}acetamido)methyl]cyclohexyl}-2,5,11,13-tetraazahexadecane-10,14,16-tricarboxylato(3−)(^227Th)Thorium]", "values": [{"measurement": "Proliferation assay on cancer cell lines by TTCs Default Pivot #3 IC50 [kBq/mL] C4-2 1000cells 375kBq/nmol (mean)", "setting": "C4-2 cells", "value": 0.72, "unit": "kBq/mL"}, {"measurement": "Proliferation assay on cancer cell lines by TTCs Default Pivot #3 IC50 [kBq/mL] LnCap 1000cells 375kBq/nmol (mean)", "setting": "LNCaP cells", "value": 0.10, "unit": "kBq/mL"}, {"measurement": "Proliferation assay on cancer cell lines by TTCs Default Pivot #3 IC50 [kBq/mL] VCap 4000cells 375kBq/nmol (mean)", "setting": "VCaP cells", "value": 0.70, "unit": "kBq/mL"}]}, {"compound": "O=C(O)CC[C@H](NC(=O)N[C@@H](CCCCNC(=O)[C@@H](Cc1ccc2cnccc2c1)NC(=O)[C@H]1CC[C@H](CNC(=O)C[N+]23CCN4CCN5CC[N+]6(CC2)CC(=O)[O][227Th-2]36([O]C(=O)C4)[O]C(=O)C5)CC1)C(=O)O)C(=O)O", "note": "[Example 44-B-227Th, (3R,10S,14S)-3-[(isoquinolin-6-yl)methyl]-1,4,12-trioxo-1-{(1r,4S)-4-[(2-{4,7,10-tris[(carboxy-kappaO)methyl]-1,4,7,10-tetraazacyclododecan-1-yl-kappa^2N^1,N^4}acetamido)methyl]cyclohexyl}-2,5,11,13-tetraazahexadecane-10,14,16-tricarboxylato(3−)(^227Th)Thorium]", "values": [{"measurement": "Proliferation assay on cancer cell lines by TTCs Default Pivot #3 IC50 [kBq/mL] C4-2 1000cells 375kBq/nmol (mean)", "setting": "C4-2 cells", "value": 0.67, "unit": "kBq/mL"}, {"measurement": "Proliferation assay on cancer cell lines by TTCs Default Pivot #3 IC50 [kBq/mL] LnCap 1000cells 375kBq/nmol (mean)", "setting": "LNCaP cells", "value": 0.08, "unit": "kBq/mL"}, {"measurement": "Proliferation assay on cancer cell lines by TTCs Default Pivot #3 IC50 [kBq/mL] VCap 4000cells 375kBq/nmol (mean)", "setting": "VCaP cells", "value": 0.71, "unit": "kBq/mL"}]}, {"compound": "O=C(O)CC[C@H](NC(=O)N[C@@H](CCCCNC(=O)[C@@H](Cc1ccc2cccnc2c1)NC(=O)[C@H]1CC[C@H](CNC(=O)C[N+]23CCN4CCN5CC[N+]6(CC2)CC(=O)[O][227Th-2]36([O]C(=O)C4)[O]C(=O)C5)CC1)C(=O)O)C(=O)O", "note": "[Example 45-B-227Th, (3R,10S,14S)-1,4,12-trioxo-3-[(quinolin-7-yl)methyl]-1-{(1r,4S)-4-[(2-{4,7,10-tris[(carboxy-kappaO)methyl]-1,4,7,10-tetraazacyclododecan-1-yl-kappa^2N^1,N^4}acetamido)methyl]cyclohexyl}-2,5,11,13-tetraazahexadecane-10,14,16-tricarboxylato(3−)(^227Th)Thorium]", "values": [{"measurement": "Proliferation assay on cancer cell lines by TTCs Default Pivot #3 IC50 [kBq/mL] C4-2 1000cells 375kBq/nmol (mean)", "setting": "C4-2 cells", "value": 1.02, "unit": "kBq/mL"}, {"measurement": "Proliferation assay on cancer cell lines by TTCs Default Pivot #3 IC50 [kBq/mL] LnCap 1000cells 375kBq/nmol (mean)", "setting": "LNCaP cells", "value": 0.14, "unit": "kBq/mL"}, {"measurement": "Proliferation assay on cancer cell lines by TTCs Default Pivot #3 IC50 [kBq/mL] VCap 4000cells 375kBq/nmol (mean)", "setting": "VCaP cells", "value": 0.94, "unit": "kBq/mL"}]}, {"compound": "{N^6-[3-(isoquinolin-3-yl)-N-{(1r,4S)-4-[(2-{4,7,10-tris[(carboxy-kappaO)methyl]-1,4,7,10-tetraazacyclododecan-1-yl-kappa^2N^1,N^4}acetamido)methyl]cyclohexane-1-carbonyl}alanyl]-N^2-{[(1S)-1,3-dicarboxypropyl]carbamoyl}-L-lysinato(3−)}(^227Th)Thorium [Example 36-B-227Th]", "values": [{"measurement": "Proliferation assay on cancer cell lines by TTCs Default Pivot #3 IC50 [kBq/mL] C4-2 1000cells 375kBq/nmol (mean)", "setting": "C4-2 cells", "value": 3.88, "unit": "kBq/mL"}, {"measurement": "Proliferation assay on cancer cell lines by TTCs Default Pivot #3 IC50 [kBq/mL] LnCap 1000cells 375kBq/nmol (mean)", "setting": "LNCaP cells", "value": 0.16, "unit": "kBq/mL"}, {"measurement": "Proliferation assay on cancer cell lines by TTCs Default Pivot #3 IC50 [kBq/mL] VCap 4000cells 375kBq/nmol (mean)", "setting": "VCaP cells", "value": 0.75, "unit": "kBq/mL"}]}]}
